Experimental data: patent US20230143345A1, “PHARMACEUTICAL COMPOSITION FOR PREVENTION OR TREATMENT OF DISEASES CAUSED BY SARS-COV-2” (DONG WHA PHARM. CO., LTD., priority 2020, published 2023)
Read-outs that look alike come from different tables or passages of the source.

Experiments:
SARS-CoV-2 [1] = assay: microbe, parasite or virus in culture; assay type: cell-based; settings: for inhibition at 0.1 µM: concentration 0.10 uM; for inhibition at 0.2 µM: concentration 0.20 uM; for inhibition at 0.39 µM: concentration 0.39 uM; for inhibition at 1.56 µM: concentration 1.56 uM; for inhibition at 3.13 µM: concentration 3.13 uM; for inhibition at 6.25 µM: concentration 6.25 uM; for inhibition at 12.5 µM: concentration 12.5 uM; for inhibition at 25 µM: concentration 25 uM; for inhibition at 50 µM: concentration 50 uM
Vero cell lines = assay: Cell viability of Vero cells in the SARS-CoV-2 inhibition experiment (Example 2)
SARS-CoV-2 [2] = assay: microbe, parasite or virus in culture; assay type: cell-based; settings: Severe acute respiratory syndrome coronavirus 2, read-out: SARS-CoV-2 virus 50% inhibitory ability (IC50 value); VERO cells infected at MOI 0.1 for one hour, then drug; culture fluid after 48 hours, qRT-PCR
[3] = Cell viability of VERO cells by WST-1 assay (Example 3); settings: African green monkey
[4] = Severe acute respiratory syndrome coronavirus 2, Vero cells, 24 h, read-out: SARS-CoV-2 virus inhibitory ability (%, average ± standard deviation)
[5] = Severe acute respiratory syndrome coronavirus 2, Vero, 24 h, Vero cells, 24 h, read-out: SARS-CoV-2 virus inhibitory ability (%, average ± standard deviation)

## COc1cc2c(OC)c3c(c(-c4ccc5c(c4)OCO5)c2cc1OC)C(=O)OC3 [Justicidin-A, 9-benzo[1,3]dioxol-5-yl-4,6,7-trimethoxy-3H -naphtho[2,3-c]furan-1-one]
SARS-CoV-2 [1]; Severe acute respiratory syndrome coronavirus 2, Vero, 24 h, read-out: SARS-CoV-2 virus 50% inhibitory ability (IC50 value)
  IC50: 0.159 µM
SARS-CoV-2 [1]; [4]
  inhibition at 0.1 µM: 25.7 ± 12.3%
  inhibition at 0.2 µM: 75.3 ± 4.37%
  inhibition at 0.39 µM: 95.2 ± 1.48%
  inhibition at 1.56 µM: 99 ± 0.57%
  inhibition at 3.13 µM: 100 ± 0.36%
  inhibition at 6.25 µM: 99.6 ± 0.16%
  inhibition at 12.5 µM: 98.1 ± 1.47%
  inhibition at 25 µM: 95.3 ± 0.61%
  inhibition at 50 µM: 93.3 ± 1.69%
SARS-CoV-2 [1]; Severe acute respiratory syndrome coronavirus 2, concentration 0.78 uM, Vero cells, 24 h, read-out: SARS-CoV-2 virus inhibitory ability (%, average ± standard deviation)
  inhibition at […]: 99 ± 1.58%
SARS-CoV-2 [1]; Vero cells, comparison at IC50 values with Remdesivir, Lopinavir and Chloroquine
  SARS-CoV-2 inhibitory ability (in words): remarkably more excellent
Vero cell lines; concentration 0.20 uM
  Cell viability (%, average ± standard deviation): 97.6 ± 0.61%
Vero cell lines; concentration 0.39 uM
  Cell viability (%, average ± standard deviation): 101.3 ± 1.55%
Vero cell lines; concentration 1.56 uM
  Cell viability (%, average ± standard deviation): 97.4 ± 0.09%
Vero cell lines; concentration 3.13 uM
  Cell viability (%, average ± standard deviation): 98.4 ± 1.93%
Vero cell lines; concentration 6.25 uM
  Cell viability (%, average ± standard deviation): 96.9 ± 3.33%
Vero cell lines; concentration 12.5 uM
  Cell viability (%, average ± standard deviation): 96.5 ± 0.20%
Vero cell lines; concentration 25 uM
  Cell viability (%, average ± standard deviation): 99.5 ± 1.81%
Vero cell lines; concentration 50 uM
  Cell viability (%, average ± standard deviation): 98.0 ± 3.04%

## CCN(CC)CCCC(C)Nc1ccnc2cc(Cl)ccc12 (centres unmarked) [Chloroquine]
SARS-CoV-2 [1]; [5]
  inhibition at 0.1 µM: -2.83 ± 2.09%
  inhibition at 0.2 µM: -4.26 ± 0.03%
  inhibition at 0.39 µM: -2.86 ± 0.21%
  inhibition at 1.56 µM: 3.52 ± 6.42%
  inhibition at 3.13 µM: 61.1 ± 7.72%
  inhibition at 6.25 µM: 97.7 ± 0.16%
  inhibition at 12.5 µM: 99.31 ± 0.39%
  inhibition at 25 µM: 98.93 ± 0.07%
  inhibition at 50 µM: 99.4 ± 1%
SARS-CoV-2 [1]; Severe acute respiratory syndrome coronavirus 2, Vero, 24 h, read-out: SARS-CoV-2 virus 50% inhibitory ability (IC50 value), Vero cells dosed while being infected, 24 h, compounds
  IC50: 8.78 µM
Vero cell lines; concentration 0.10 uM
  Cell viability (%, average ± standard deviation): 83.10 ± 6.34%
Vero cell lines; concentration 0.20 uM
  Cell viability (%, average ± standard deviation): 87.70 ± 0.37%
Vero cell lines; concentration 0.39 uM
  Cell viability (%, average ± standard deviation): 83.14 ± 3.44%
Vero cell lines; concentration 1.56 uM
  Cell viability (%, average ± standard deviation): 89.11 ± 4.21%
Vero cell lines; concentration 3.13 uM
  Cell viability (%, average ± standard deviation): 97.41 ± 1.82%
Vero cell lines; concentration 6.25 uM
  Cell viability (%, average ± standard deviation): 90.84 ± 3.72%
Vero cell lines; concentration 12.5 uM
  Cell viability (%, average ± standard deviation): 83.63 ± 0.73%
Vero cell lines; concentration 25 uM
  Cell viability (%, average ± standard deviation): 71.29 ± 6.06%
Vero cell lines; concentration 50 uM
  Cell viability (%, average ± standard deviation): 59.69 ± 1.38%

## CCN(CCO)CCCC(C)Nc1ccnc2cc(Cl)ccc12 (centres unmarked) [Hydroxy-chloroquine, reference compound]
SARS-CoV-2 [2]
  IC50: 9.33 µM
[3]
  CC50 at 48 h: 160 µM
